Columns and labels:
Type in all cases: in vivo
[1] = test system: COX-2; experiment: Expression of enzyme COX-2 in carrageenin-injected rat paw (Western blot); details: 50 mg/kg orally 60 minutes before carrageenin 300 μg/paw, subcutaneous paw tissue
Description: The expression of enzymes COX-2 and iNOS were determined by Western blot according to the methodology described by Medeiros et. al. in the publication Circ Res. 28:1375-1382, 2004. Male 160-180 g rats were orally given 50 mg/kg of trans-caryophyllene. Animals treated with 0.9% (0.1 ml/10 g) saline were used as control. Another group of animals was treated with 0.5 mg/kg dexamethasone, subcutaneously, 4 hours before the test, and used as positive control. After 60 minutes, the animals received intraplantar injections of 100 μl of carrageenin (300 μg/paw) and were sacrificed after 180 minutes, and subcutaneous paw tissue was removed […] after the carrageenin injection. […] The protein concentration was determined by the Bradford method (BioRad Laboratories Inc. kit, Milan, Italy). […] The bands thus obtained were quantified using a chemoluminescence kit and densitometry analysis (relative units) in radiographic films. Graph 10 below (each result represents the average of 5 animals, and the vertical bars the mean standard error deviation) compares inhibition of expression of the COX2 enzymes, obtained by the administration of alpha-humulene and trans-caryophyllene, when evaluated in the subcutaneous tissue or the paw injected with carrageenin, compared to the expression of COX2 induced by carrageenin obtained by treatment with dexomethasone.

[2] = test system: PAF-induced oedema; experiment: Platelet aggregation factor (PAF) oedema in mouse paw; details: mice, PAF 3 nmol/paw intraplantar; 50 mg/kg orally 1 h before; 30 to 120 min
Description: The test used below is described by Cunha et. al. in the publication Life Sci. 70:159-169, 2001. Male 25 g-35 g mice were slightly sedated with ether and were injected 50 μl saline containing platelet aggregation factor (PAF, 3 nmol/paw), intraplantar, in the right paw. The left paw received the same volume of saline and was taken as negative control. The swelling was measured with a plethysmometer (manufacturer: Ugo Basile, Italy) along various time intervals after the injection of the phlogistic agent. The difference between the volumes of the right and the left paw were quantified (in ml) and taken as an index of oedema. One hour before the test the animals were systemically treated (orally) with 50 mg/kg of alpha-humulene or trans-caryophyllene. Graph 5 below compares the inhibition of the volume of the oedema by administration of alpha-humulene (SA) and trans-caryophyllene (5B). Oedema volume measurement time intervals were 30, 45, 60, and 120 min. Each point represents the average of 5 animals, and the vertical bars the mean standard deviation.

[3] = test system: PGE2; experiment: Levels of PGE2 in carrageenin-injected rat paw exsudate (Elisa); details: 50 mg/kg orally 60 minutes before carrageenin 300 μg/paw, paw exsudate after 180 minutes
Description: The test used below is described by Pinheiro et. al. in the publication Inflamm. Res. 51: 603-610, 2002, with minor modifications. Male 160-180 g rats were orally given 50 mg/kg of trans-caryophyllene. Animals treated with 0.9% (0.1 ml/10 g) saline were used as control. Another group of animals was treated with 0.5 mg/kg dexamethasone, subcutaneously, 4 hours before the test, and used as positive control. After 60 minutes, the animals received intraplantar injections of 100 μl of carrageenin (300 μg/paw) and were sacrificed after 180 minutes. The exsudate of the paws was collected by dialysis with the help of two polyethylene canulas, and was utilized for the quantification of PGE2, with an Elisa kit, according to the manufacturer's instructions (R & D Systems®, USA). The tests were performed in duplicate, and repeated three times. The answers are expressed in pg/mg of tissue. Graph 9 below (each result represents the average of 5 animals, and the vertical bars the mean standard error deviation) compares inhibition of the PGE2 level growth induced by carrageenin in the paws of rats, by administration of alpha-humulene and trans-caryophyllene, compared to the effect obtained by treatment with dexomethasone.

[4] = test system: bradykinin-induced paw oedema; experiment: Bradykinin oedema in mouse paw; details: mice, bradykinin 3 nmol/paw intraplantar, captopril pre-treatment; 50 mg/kg orally 1 h before; 10 min to 48 h
Description: The test used below is described by Cunha et. al. in the publication Life Sci. 70:159-169, 2001. Male 25 g-35 g mice were slightly sedated with ether and were injected 50 μl saline containing bradykinin (BK, 3 nmol/paw), intraplantar, in the right paw. The left paw received the same volume of saline and was taken as negative control. The swelling was measured with a plethysmometer (manufacturer: Ugo Basile, Italy) along various time points intervals after the injection of the phlogistic agent. The difference between the volumes of the right and the left paw were quantified (in ml) and taken as an index of oedema. One hour before the test the animals were systemically treated (orally) with 50 mg/kg of alpha-humulene or with trans-caryophyllene. The animals were pre-treated with 5 mg/kg of captopril, injected subcutaneously, 1 hour before the test, in order to avoid degradation of […]. Graphs 3A and 3B below compare the inhibition of the volume of the oedema by administration of alpha-humulene (3A) or trans-caryophyllene (3B). Oedema volume measurement time intervals were 10, 20, 30, 60, and 120 min, 24 h and 48 h. Each point represents the average of 5 animals, and the vertical bars the mean standard error deviation.

| SMILES | expression of enzymes COX2 induced by carrageenin in the paws of rats [1] | PAF-induced oedema formation [2] | growth of PGE2 levels induced by carrageenin in the paws of rats [3] | bradykinin-induced paw oedema [4] |
| --- | --- | --- | --- | --- |
| C/C1=C\CC/C(C)=C/CC(C)(C)/C=C/C1 [alpha-humulene] | markedly inhibited the expression | markedly reduced PAF-induced oedema formation | markedly inhibited the growth of PGE2 levels | markedly reduced bradykinin-induced paw oedema |
| C=C1CC/C=C(\C)CC[C@@H]2[C@@H]1CC2(C)C [trans-caryophyllene] | markedly inhibited the expression | markedly reduced PAF-induced oedema formation | markedly inhibited the growth of PGE2 levels | markedly reduced bradykinin-induced paw oedema |

Reference: US20080280996A1, “Use of Carophyllenes in the Manufacture of Medicaments and Treatment of Bodily Conditions of Inflammation and Inflammatory Pain” (priority 2004, published 2008)
